This passage reports IC50 results from patent US20120264735A1 (priority 2009, published 2012).

What is called IC50 is the concentration that gives 50% inhibition.

For this assay, the target named is T1, c-Met kinase (recombinant c-Met) (Homo sapiens, UniProt P08581).
T1 construct: 0.27 nM recombinant c-Met
T1 sequence (P08581 25-1390): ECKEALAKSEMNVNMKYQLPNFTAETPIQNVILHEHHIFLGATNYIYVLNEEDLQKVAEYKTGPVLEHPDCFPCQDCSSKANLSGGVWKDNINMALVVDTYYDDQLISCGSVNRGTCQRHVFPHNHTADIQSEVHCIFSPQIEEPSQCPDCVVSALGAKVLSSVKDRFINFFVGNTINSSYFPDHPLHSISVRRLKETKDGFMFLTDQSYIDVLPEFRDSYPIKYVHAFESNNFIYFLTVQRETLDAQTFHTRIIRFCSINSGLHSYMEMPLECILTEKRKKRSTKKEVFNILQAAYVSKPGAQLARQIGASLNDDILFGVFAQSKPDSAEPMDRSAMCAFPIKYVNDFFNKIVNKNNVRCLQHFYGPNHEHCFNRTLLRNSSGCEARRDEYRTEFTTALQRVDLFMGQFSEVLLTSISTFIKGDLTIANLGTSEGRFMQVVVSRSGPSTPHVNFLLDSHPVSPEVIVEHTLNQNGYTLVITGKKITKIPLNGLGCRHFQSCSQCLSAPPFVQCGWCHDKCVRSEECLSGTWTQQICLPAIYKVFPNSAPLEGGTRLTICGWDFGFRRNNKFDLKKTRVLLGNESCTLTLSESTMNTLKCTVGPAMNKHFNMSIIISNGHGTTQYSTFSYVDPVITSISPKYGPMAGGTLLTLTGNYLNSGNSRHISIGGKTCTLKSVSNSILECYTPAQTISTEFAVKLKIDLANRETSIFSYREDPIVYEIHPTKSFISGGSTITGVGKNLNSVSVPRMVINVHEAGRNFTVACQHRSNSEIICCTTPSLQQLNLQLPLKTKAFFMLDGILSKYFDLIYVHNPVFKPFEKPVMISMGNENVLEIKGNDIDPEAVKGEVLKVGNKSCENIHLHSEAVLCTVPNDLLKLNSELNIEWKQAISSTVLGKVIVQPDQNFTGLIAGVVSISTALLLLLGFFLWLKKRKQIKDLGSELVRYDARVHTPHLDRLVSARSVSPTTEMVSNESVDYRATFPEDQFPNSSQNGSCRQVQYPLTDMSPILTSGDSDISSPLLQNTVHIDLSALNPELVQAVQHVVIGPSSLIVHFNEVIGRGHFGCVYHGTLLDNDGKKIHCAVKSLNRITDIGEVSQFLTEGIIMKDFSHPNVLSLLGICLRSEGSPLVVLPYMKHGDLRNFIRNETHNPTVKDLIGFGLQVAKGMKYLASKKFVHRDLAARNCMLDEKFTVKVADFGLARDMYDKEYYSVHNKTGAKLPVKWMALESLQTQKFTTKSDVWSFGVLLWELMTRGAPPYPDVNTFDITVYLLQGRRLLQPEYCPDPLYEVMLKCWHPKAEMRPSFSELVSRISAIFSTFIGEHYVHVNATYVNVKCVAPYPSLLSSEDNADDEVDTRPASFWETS
The experiment in a line: In vitro kinase assay I (homogeneous time-resolved fluorescence tyrosine kinase assay). The assay is classed as biochemical. Put shortly:
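Biotinylated peptide (0.5 μM) phosphorylated by 0.2 nM recombinant c-Met with 50 μM MgATP, 60 min at room temperature, pH 7.4, 5% DMSO. EDTA stop; HTRF read with Eu-anti-phosphotyrosine antibody and streptavidin-APC. IC50 from 4-parameter logistic fit.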
With `CCn1cc(-n2ccc(=O)c(Cc3cccc(-c4ncc(OCC5(C)COC5)cn4)c3)n2)cn1` [Example 316, 1-(1-ethyl-1H-pyrazol-4-yl)-3-(3-{5-[(3-methyloxetan-3-yl)methoxy]pyrimidin-2-yl}benzyl)pyridazin-4(1H)-one], the IC50 was less than 0.1 µM.

Take `CCNc1cnc(-c2cccc(Cc3nn(-c4cnn(C)c4)ccc3=O)c2)nc1` [Example 452]: the IC50 is less than 0.1 µM.

Take `CCOc1cnc(-c2cccc(C(C)c3nn(-c4cccc(C(N)=O)c4)ccc3=O)c2)nc1` (racemic) [Example 738, rac-3-[3-{1-[3-(5-ethoxypyrimidin-2-yl)phenyl]ethyl}-4-oxopyridazin-1(4H)-yl]lbenzamide]: the IC50 is less than 0.1 µM.

As to `CCOC(=O)c1coc(-c2cccc(Cc3nn(-c4cnn(C)c4)ccc3=O)c2)n1` [Example 674, ethyl 2-(3-{[1-(1-methyl-1H-pyrazol-4-yl)-4-oxo-1,4-dihydropyridazin-3-yl]methyl}phenyl)-1,3-oxazole-4-carboxylate], the 50% inhibitory concentration (IC50) is 1 to 3 µM.

As for `Cn1cc(-n2ccc(=O)c(Cc3cccc(-c4ncc(C(=O)NCC5COCCO5)cn4)c3)n2)cn1` (racemic) [Example 474, rac-N-(1,4-Dioxan-2-ylmethyl)-2-(3-{[1-(1-methyl-1H-pyrazol-4-yl)-4-oxo-1,4-dihydropyridazin-3-yl]methyl}phenyl)pyrimidine-5-carboxamide], the IC50 is less than 0.1 µM.

As for `O=C(Nc1cccc(Cc2nn(-c3ccc(F)c(F)c3)ccc2=O)c1)OCC1COCCO1` (racemic) [Example 603, rac-1,4-dioxan-2-ylmethyl (3-{[1-(3,4-difluorophenyl)-4-oxo-1,4-dihydropyridazin-3-yl]methyl}phenyl)carbamate], the IC50 is less than 0.1 µM.

In the case of `CC(C)COC(=O)Nc1cccc(Cc2nn(-c3cnn(CCCC(=O)NC4COC4)c3)ccc2=O)c1` [Example 701, 2-methylpropyl {3-[(1-{1-[4-(oxetan-3-ylamino)-4-oxobutyl]-1H-pyrazol-4-yl}-4-oxo-1,4-dihydropyridazin-3-yl)methyl]phenyl} carbamate], the IC50 is less than 0.1 µM.

For `Cc1nccc(-c2cccc(Cc3nn(-c4cnn(C)c4)ccc3=O)c2)n1` [Example 40, 1-(1-methyl-1H-pyrazol-4-yl)-3-[3-(2-methylpyrimidin-4-yl)benzyl]pyridazin-4(1H)-one], the IC50 was 1 to 3 µM.

Take `COCCCc1cnc(-c2cccc(Cc3nn(-c4cnn(C)c4)ccc3=O)c2)nc1` [Example 439, 3-{3-[5-(3-methoxypropyl)pyrimidin-2-yl]benzyl}-1-(1-methyl-1H-pyrazol-4-yl)pyridazin-4(1H)-one]: the IC50 is less than 0.1 µM.

Take `CCCn1cnc(-c2cccc(C(C)c3nn(-c4cnn(C)c4)ccc3=O)c2)n1` (single isomer, unassigned) [Example 684, 1-(1-methyl-1H-pyrazol-4-yl)-3-{(1S or R)-1-[3-(1-propyl-1H-1,2,4-triazol-3-yl)phenyl]ethyl} pyridazin-4(1H)-one]: the IC50 lay in the range of 1 to 3 µM.

On to `Cn1cc(-n2ccc(=O)c(Cc3cccc(-c4ncc(OCC5CCOCC5)cn4)c3)n2)cn1` [Example 262, 1-(1-methyl-1H-pyrazol-4-yl)-3-{3-[5-(tetrahydro-2H-pyran-4-ylmethoxy)pyrimidin-2-yl]benzyl}pyridazin-4(1H)-one], for which the IC50 was less than 0.1 µM.

Consider `Cn1cc(-c2cnc(-c3cccc(Cc4nn(-c5cc(Cl)cc(C#N)c5)ccc4=O)c3)nc2)cn1` [Example 158, 3-chloro-5-[3-{3-[5-(1-methyl-1H-pyrazol-4-yl)pyrimidin-2-yl]benzyl}-4-oxopyridazin-1(4H)-yl]benzonitrile], for which the IC50 was less than 0.1 µM.

Turning to `CCOc1cnc(-c2cccc(C(C)c3nn(-c4cnn(C)c4)ccc3=O)c2)nc1` (single isomer, unassigned) [Example 202, 3-{(1R or S)-1-[3-(5-ethoxypyrimidin-2-yl)phenyl]ethyl}-1-(1-methyl-1H-pyrazol-4-yl)pyridazin-4(1H)-one], the IC50 was less than 0.1 µM.

With `CC(Oc1cnc(-c2cccc(Cc3nn(-c4cnn(C)c4)ccc3=O)c2)nc1)C(C)(C)O` (racemic) [Example 366, rac-3-{3-[5-(2-hydroxy-1,2-dimethylpropoxy)pyrimidin-2-yl]benzyl}-1-(1-methyl-1H-pyrazol-4-yl)pyridazin-4(1H)-one], the IC50 is less than 0.1 µM.

For `CCOc1cnc(-c2cccc(Cc3nn(-c4ccc(C(=O)NCC(C)(C)O)c(F)c4)ccc3=O)c2)nc1` [Example 724, 4-{3-[3-(5-ethoxypyrimidin-2-yl)benzyl]-4-oxopyridazin-fluoro-N-(2-1(4H)-yl}-2-hydroxy-2-methylpropyl) benzamide], the IC50 is less than 0.1 µM.

On to `Cn1cc(-n2ccc(=O)c(Cc3cccc(NC(=O)OCC(F)(F)CN)c3)n2)cn1` [Example 614, 3-Amino-2,2-difluoropropyl (3-{[1-(1-methyl-1H-pyrazol-4-yl)-4-oxo-1,4-dihydropyridazin-3-yl]methyl}phenyl)carbamate], for which the IC50 was less than 0.1 µM.

As for `Cn1cc(-n2ccc(=O)c(Cc3cccc(-c4ncn(CC5(C)COC5)n4)c3)n2)cn1` [Example 713, 3-(3-{1-[(3-methyloxetan-3-yl)methyl]-1H-1,2,4-triazol-3-yl}benzyl)-1-(1-methyl-1H-pyrazol-4-yl)pyridazin 4(1H)-one], the IC50 was 0.1 to 1 µM.

With `Cn1cc(-n2ccc(=O)c(Cc3cccc(-c4ncc(Cc5ccccc5)cn4)c3)n2)cn1` [Example 396], the IC50 is less than 0.1 µM.

With `Cn1cc(-n2ccc(=O)c(Cc3cccc(NC(=O)OCC(F)CN4CCOCC4)c3)n2)cn1` (racemic) [Example 638, rac-2-Fluoro-3-morpholin-4-ylpropyl (3-{[1-(1-methyl-1H-pyrazol-4-yl)-4-oxo-1,4-dihydropyridazin-3-yl]methyl}phenyl)carbamate], the half-inhibitory concentration (IC50) was less than 0.1 µM.

As to `Cn1cc(-n2ccc(=O)c(Cc3cccc(-c4ncc(CN5CCC(F)C5)cn4)c3)n2)cn1` (racemic) [Example 431, rac-3-(3-{5-[(3-fluoropyrrolidin-1-yl)methyl]pyrimidin-2-yl}benzyl)-1-(1-methyl-1H-pyrazol-4-yl)pyridazin-4(1H)-one], the IC50 was less than 0.1 µM.

Turning to `CCOc1cnc(-c2cccc(Cc3nn(-c4cnn(C)c4F)cc(F)c3=O)c2)nc1` [compound 752], the IC50 is less than 0.1 µM.

With `C=C(C)c1cnc(-c2cccc(Cc3nn(-c4cnn(C)c4)ccc3=O)c2)nc1` [Example 399, 1-(1-methyl-1H-pyrazol-4-yl)-3-{3-[5-(prop-1-en-2-yl)pyrimidin-2-yl]benzyl}pyridazin-4(1H)-one], the 50% inhibitory concentration (IC50) was less than 0.1 µM.

`CCCn1cnc(-c2cccc(Cc3nn(-c4cc(F)cc(C#N)c4)ccc3=O)c2)n1` [Example 81, 3-fluoro-5-{4-oxo-3-[3-(1-propyl-1H-1,2,4-triazol-3-yl)benzyl]pyridazin-1(4H)-yl}benzonitrile]: the IC50 was less than 0.1 µM.

For the molecule `Cn1cc(-n2ccc(=O)c(Cc3cccc(-c4ncc(C5=CCOC5)cn4)c3)n2)cn1` [Example 175, 3-{3-[5-(2,5-dihydrofuran-3-yl)pyrimidin-2-yl]benzyl}-1-(1-methyl-1H-pyrazol-4-yl)pyridazin-4(1H)-one], the IC50 was less than 0.1 µM.

Regarding `CCCOC(=O)Nc1cccc(Cc2nn(-c3cc(F)c(Br)c(F)c3)ccc2=O)c1` [Example 16, propyl (3-{[1-(4-bromo-3,5-difluorophenyl)-4-oxo-1,4-dihydropyridazin-3-yl]methyl}phenyl)carbamate], the IC50 was less than 0.1 µM.
